Drawing on patent US11590139B2, “Substituted aminopurine compounds, compositions thereof, and methods of treatment therewith” (Signal Pharmaceuticals, LLC, priority 2014, dated 2023), this text covers IC50 for 20 compounds.

One assay relates to Lox-IMVI melanoma cell line. As to the kind of experiment: Lox-IMVI anti-proliferative assay (growth inhibition, Cell Titer-Glo). In kind it is cell-based, human. The note with it: Homo sapiens; IC50 activity level in the cell-based Lox-IMVI anti-proliferative assay; read-out: Activity. The gist of the method:
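RPMI/10% FBS; cmpd 0.5 nM–10 μM, 3-fold ×10, duplicate, 0.2% DMSO final; 72 h, 37 °C, 5% CO2. ATP-luminescence readout at t0 and 72 h. IC50 = 50% of DMSO control, 4-parameter logistic fit.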
Regarding `C[C@@H]1CC[C@@H](Nc2ncc3nc(Nc4c(F)ccc(F)c4F)n([C@H]4CC[C@@H](C(N)=O)CC4)c3n2)C[C@H]1O` [Example 359, (1S,4s)-4-(2-((1R,3R,4R)-3-hydroxy-4-methylcyclohexylamino)-8-(2,3,6-trifluorophenylamino)-9H-purin-9-yl)cyclohexanecarboxamide], the IC50 was more than 1000 nM.
The same measure, in the same setting: the value for `NC(=O)[C@H]1CC[C@@H](n2c(Nc3c(F)ccc(Cl)c3F)nc3cnc(N[C@@H]4CCC[C@H](O)C4)nc32)CC1` [Example 362, (1S,4s)-4-(8-(3-chloro-2,6-difluorophenylamino)-2-((1R,3S)-3-hydroxycyclohexylamino)-9H-purin-9-yl)cyclohexanecarboxamide] was more than 1000 nM.
Still for that read-out and setting: under `NC(=O)[C@H]1CC[C@@H](n2c(Nc3c(F)ccc(Cl)c3F)nc3cnc(N[C@H]4CCC[C@@H](O)C4)nc32)CC1` [Example 377, (1R,4s)-4-(8-(3-chloro-2,6-difluorophenylamino)-2-((1S,3R)-3-hydroxycyclohexylamino)-9H-purin-9-yl)cyclohexanecarboxamide] stands more than 1000 nM; under `NC(=O)[C@H]1CC[C@@H](n2c(Nc3c(Cl)cc(F)cc3Cl)nc3cnc(N[C@@H]4CC[C@@H](O)C4)nc32)CC1` [Example 214, (1S,4s)-4-(8-(2,6-dichloro-4-fluorophenylamino)-2-((1R,3R)-3-hydroxycyclopentylamino)-9H-purin-9-yl)cyclohexanecarboxamide], more than 1000 nM.
Still for that read-out and setting: the value for `C[C@@H](O)CNc1ncc2nc(Nc3c(Cl)cc(Cl)cc3Cl)n([C@H]3CC[C@@H](C(N)=O)CC3)c2n1` [Example 152, (1S,4s)-4-(2-((R)-2-hydroxypropylamino)-8-(2,4,6-trichlorophenylamino)-9H-purin-9-yl)cyclohexanecarboxamide] was more than 1000 nM; that for `NC(=O)[C@H]1CC[C@@H](n2c(Nc3ccc(Cl)c(F)c3F)nc3cnc(N[C@H]4C[C@@H](O)C4)nc32)CC1` [Example 310, (1s,4s)-4-(8-(4-chloro-2,3-difluorophenylamino)-2-((1s,3s)-3-hydroxycyclobutylamino)-9H-purin-9-yl)cyclohexanecarboxamide] was more than 1000 nM.
Consider `NC(=O)[C@H]1CC[C@@H](n2c(Nc3c(F)cc(F)cc3Cl)nc3cnc(N[C@@H]4CCC[C@H]4O)nc32)CC1` [Example 252, (1S,4s)-4-(8-(2-chloro-4,6-difluorophenylamino)-2-((1R,2R)-2-hydroxycyclopentylamino)-9H-purin-9-yl)cyclohexanecarboxamide], for which the IC50 was more than 1000 nM.
Same read-out and setting: the value for `NC(=O)[C@H]1CC[C@@H](n2c(Nc3cc(F)c(F)cc3Cl)nc3cnc(NC4CCOCC4)nc32)CC1` [Example 100, (1s,4s)-4-(8-(2-chloro-4,5-difluorophenylamino)-2-(tetrahydro-2H-pyran-4-ylamino)-9H-purin-9-yl)cyclohexanecarboxamide] was more than 1000 nM.

The same assay, now with this note: Homo sapiens; Lox-IMVI anti-proliferative assay, IC50 activity level; read-out: Activity.
Turning to `C[C@]1(C(N)=O)CC[C@H](n2c(Nc3c(F)cc(Cl)cc3Cl)nc3cnc(N[C@@H]4CCC[C@H](O)C4)nc32)CC1` [Example 484, (1R,4r)-4-(8-(2,4-dichloro-6-fluorophenylamino)-2-((1R,3S)-3-hydroxycyclohexylamino)-9H-purin-9-yl)-1-methylcyclohexanecarboxamide], the IC50 was more than 1000 nM.
Same read-out and setting: the value for `COC(=O)N1CCCC(Nc2ncc3nc(Nc4c(F)cccc4F)n([C@H]4CC[C@@H](C(N)=O)CC4)c3n2)C1` (stereo partly drawn) [Example 404, (R)-methyl 3-(9-((1s,4S)-4-carbamoylcyclohexyl)-8-(2,6-difluorophenylamino)-9H-purin-2-ylamino)piperidine-1-carboxylate] was more than 1000 nM.
On the same count and under the same terms, the value for `C[C@H]1COCC[C@H]1Nc1ncc2nc(Nc3c(Cl)cc(Cl)cc3Cl)n([C@H]3CC[C@@H](C(N)=O)CC3)c2n1` [Example 501, (1S,4s)-4-(2-((3R,4R)-3-methyltetrahydro-2H-pyran-4-ylamino)-8-(2,4,6-trichlorophenylamino)-9H-purin-9-yl)cyclohexanecarboxamide] was 250 to 500 nM; that for `NC(=O)[C@H]1CC[C@@H](n2c(Nc3c(F)cc(F)cc3Cl)nc3cnc(N[C@@H]4CCCC[C@H]4O)nc32)CC1` [Example 466, (1S,4s)-4-(8-(2-chloro-4,6-difluorophenylamino)-2-((1R,2R)-2-hydroxycyclohexylamino)-9H-purin-9-yl)cyclohexanecarboxamide] was more than 1000 nM; that for `NC(=O)[C@H]1CC[C@@H](n2c(Nc3c(Cl)cc(F)cc3Cl)nc3cnc(NC4CCCOCC4)nc32)CC1` (some centres unmarked) [Example 541, (1s,4s)-4-(8-(2,6-dichloro-4-fluorophenylamino)-2-(oxepan-4-ylamino)-9H-purin-9-yl)cyclohexanecarboxamide] was 500 to 1000 nM.
Still for that read-out and setting: the value for `C[C@]1(C(N)=O)CC[C@@H](n2c(Nc3c(F)cc(Cl)cc3Cl)nc3cnc(N[C@@H]4CCC[C@H](O)C4)nc32)CC1` [Example 564, (1S,4s)-4-(8-(2,4-dichloro-6-fluorophenylamino)-2-((1R,3S)-3-hydroxycyclohexylamino)-9H-purin-9-yl)-1-methylcyclohexanecarboxamide] was less than 250 nM.

The same assay, now with this note: Homo sapiens; Lox-IMVI melanoma cell line, anti-proliferative assay; read-out: Activity (IC50 activity level).
Take `NC(=O)[C@H]1CC[C@@H](n2c(Nc3c(Cl)cc(Br)cc3Cl)nc3cnc(NC4CCOCC4)nc32)CC1` [Example 690, (1s,4s)-4-(8-(4-bromo-2,6-dichlorophenylamino)-2-(tetrahydro-2H-pyran-4-ylamino)-9H-purin-9-yl)cyclohexanecarboxamide]: the IC50 is less than 250 nM.
As for `C[C@]1(C(N)=O)CC[C@@H](n2c(Nc3c(Cl)cc(C#N)cc3Cl)nc3cnc(N[C@@H]4CC[C@@H](O)C4)nc32)CC1` [Example 641, (1S,4s)-4-(8-(2,6-dichloro-4-cyanophenylamino)-2-((1R,3R)-3-hydroxycyclopentylamino)-9H-purin-9-yl)-1-methylcyclohexanecarboxamide], the IC50 was less than 250 nM.
On the same count and under the same terms, under `N#Cc1cc(Cl)c(Nc2nc3cnc(N[C@H]4CCC[C@H](O)C4)nc3n2[C@H]2CC[C@@H](C(N)=O)CC2)c(Cl)c1` [Example 688, (1R,4s)-4-(8-(2,6-dichloro-4-cyanophenylamino)-2-((1S,3S)-3-hydroxycyclohexylamino)-9H-purin-9-yl)cyclohexanecarboxamide] stands 250 to 500 nM; under `C[C@]1(C(N)=O)CC[C@@H](n2c(Nc3c(Cl)cc(Cl)cc3Cl)nc3cnc(N[C@@H]4CC[C@@H](O)C4)nc32)CC1` [Example 636, (1S,4s)-4-(2-((1R,3R)-3-hydroxycyclopentylamino)-8-(2,4,6-trichlorophenylamino)-9H-purin-9-yl)-1-methylcyclohexanecarboxamide], less than 250 nM; under `NC(=O)[C@H]1CC[C@@H](n2c(Nc3c(F)cc(Cl)cc3Cl)nc3cnc(NC4CCC(c5ncno5)CC4)nc32)CC1` (some centres unmarked) [Example 676, (1s,4s)-4-(2-(4-(1,2,4-oxadiazol-5-yl)cyclohexylamino)-8-(2,4-dichloro-6-fluorophenylamino)-9H-purin-9-yl)cyclohexanecarboxamide], more than 1000 nM.
Same read-out and setting: the value for `C[C@]1(C(N)=O)CC[C@@H](n2c(Nc3c(Cl)cc(C#N)cc3Cl)nc3cnc(NC4CCC4)nc32)CC1` [Example 599, (1s,4s)-4-(2-(cyclobutylamino)-8-(2,6-dichloro-4-cyanophenylamino)-9H-purin-9-yl)-1-methylcyclohexanecarboxamide] was less than 250 nM.
